Assay [1] deals with Male Wistar rats. Description: step through passive avoidance learning. Format: in vivo, rat. The conditions noted are these: ip, FIG. 1.
Method: Male Wistar rats weighing 200-220 g were used. The animals were obtained from Charles River Co. They were kept in a room with normal 12-12 h light dark cycle (light on: 06:00) at a relative humidity of 60±10%.
The experiment was performed in a five-channel “step through”-type passive avoidance learning apparatus. The equipment consisted of two adjacent Plexi-glass boxes of 20×20×16 cm. One of them was made of regular transparent Plexi-glass and the other one was made of black, non-transparent Plexi-glass. The boxes were connected with a 7.5×8 cm passage way, equipped with a computer-controlled guillotine-door. The passage of the rats through the door was detected by infrared photocells arranged in two parallel lines in the opening of the passage way. The door was automatically closed when the animals passed through. The dark compartment was equipped with stainless steel grid floor through which electric foot shocks could be delivered to the animals. […]
The individually numbered animals were placed into the light compartment of the equipment. […] Step through latency was automatically determined. […]
After 24 h the animals were placed again in the light compartment of the test apparatus and step-through latency was measured as described at Acquisition day, except that no foot shock was applied to the animals in any group on the second day. […]
Assay [2] addresses central 5-HT2C receptors (Homo sapiens, UniProt P28335). The conditions noted are these: cited from earlier work.
For assay [3] the following is noted: cited from earlier work.
For assay [4] the following is noted: intraperitoneal 1 and 10 mg/kg; cited from earlier work.
For assay [5] the following is noted: as low as 0.7 mg/kg intraperitoneal; cited from earlier work.
Assay [6] relates to rats. The conditions noted are these: 1 and 10 mg/kg per os; cited from earlier work.
For assay [7] the following is noted: per os 10 and 30 mg/kg; cited from earlier work.
Assay [8] concerns the target central 5-HT2A receptors (Homo sapiens, UniProt P28223). The conditions noted are these: cited from earlier work.
For assay [9] the following is noted: 3 mg/kg single subcutaneous administration; cited from earlier work.

Sequence of central 5-HT2C receptors (P28335 33-458): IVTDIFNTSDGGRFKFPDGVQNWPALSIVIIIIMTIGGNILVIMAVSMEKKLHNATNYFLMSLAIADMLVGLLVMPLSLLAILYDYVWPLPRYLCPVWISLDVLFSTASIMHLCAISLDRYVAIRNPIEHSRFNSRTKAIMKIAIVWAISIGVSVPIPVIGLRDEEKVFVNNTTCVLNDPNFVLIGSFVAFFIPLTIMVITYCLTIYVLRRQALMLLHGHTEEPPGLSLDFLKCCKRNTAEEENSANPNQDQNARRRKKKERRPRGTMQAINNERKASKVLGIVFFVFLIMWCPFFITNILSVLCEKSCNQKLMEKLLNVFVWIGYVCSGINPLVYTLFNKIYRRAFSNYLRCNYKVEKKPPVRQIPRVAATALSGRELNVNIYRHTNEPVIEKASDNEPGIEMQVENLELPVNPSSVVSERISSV
Sequence of central 5-HT2A receptors (P28223 whole entry): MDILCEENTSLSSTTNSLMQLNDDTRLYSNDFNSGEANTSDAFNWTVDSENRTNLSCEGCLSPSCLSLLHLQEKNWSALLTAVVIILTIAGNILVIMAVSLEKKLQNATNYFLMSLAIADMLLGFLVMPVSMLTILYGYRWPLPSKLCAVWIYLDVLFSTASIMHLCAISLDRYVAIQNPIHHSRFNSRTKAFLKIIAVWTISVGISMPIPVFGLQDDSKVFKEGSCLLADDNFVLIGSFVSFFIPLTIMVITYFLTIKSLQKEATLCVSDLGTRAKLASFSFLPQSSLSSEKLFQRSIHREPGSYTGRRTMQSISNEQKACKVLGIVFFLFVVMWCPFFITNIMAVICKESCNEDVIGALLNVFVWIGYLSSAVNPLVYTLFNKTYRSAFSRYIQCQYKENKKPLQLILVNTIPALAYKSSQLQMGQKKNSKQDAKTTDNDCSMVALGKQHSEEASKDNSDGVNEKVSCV

As for `CN(C)CCO[C@]1(c2ccccc2)C[C@H]2CC[C@]1(C)C2(C)C.O=C(O)/C=C/C(=O)O` [(1R,2S,4R)-(−)-2-(2-dimethylaminoethoxy)-2-phenyl-1,7,7-trimethyl-bicyclo[2.2.1]heptane-fumarate], the “step-through latency into the dark compartment” value in assay [1] (Day 1 administration, 30 min before Acquisition, latency on Day 2) is “significantly increased”; in assay [1] (Day 2 administration, 30 min before Retention test) it was “significantly increased”.
With `CN(C)CCO[C@]1(c2ccccc2)C[C@H]2CC[C@]1(C)C2(C)C` [deramciclane, (1R,2S,4R)-(−)-2-(2-dimethylaminoethoxy)-2-phenyl-1,7,7-trimethylbicyclo[2.2.1]heptane], in [2], the “binding to 5-HT2C receptors” value was “binds”. Also, the “effect on CCK agonist induced anxiety in elevated plus-maze” value in [3] (CCK agonist induced anxiety) is listed as “antagonized CCK agonist induced anxiety”. The “activity in elevated plus-maze, alone” value in [3] (deramciclane alone) is “completely inactive”. Besides, the “effect in learned helplessness” value in [4] is “effective”. The “number of social interactions” value in [5] is “increased the number of social interactions”. For the same compound, in assay [6], the “effect in Vogel lick-conflict model” value is “effective”. In addition, the “activity in marble burying test” value in assay [7] was “displayed significant activity”. In addition, the “binding to 5-HT2A receptors” value in assay [8] was “binds”. The “anxiolytic activity in light-dark model” value in assay [9] is recorded as “showed anxiolytic activity”.

The values are drawn from patent US20040171696A1, “Pharmaceutical composition for the treatment of the decline and/or damage of cognitive functions” (priority 2001, published 2004).
